We go through one compound from patent US7572798B2, “Combi-molecules having signal transduction inhibitory properties and DNA damaging properties” (McGill University, priority 2001, dated 2009).

Entries after “also recorded” stand apart in the source; their conditions may differ. Where two headings read alike, the source gives them in different places.

One data set deals with PDGFR. Nature of the data set: PDGF-induced PDGFR autophosphorylation in NIH3T3 cells (Western blot). The data set is classed as cell-based, mouse. The conditions noted are these: concentrations as high as 30 μM. (A western blot detects proteins with antibodies after separation by electrophoresis.)
In another data set the test system is NIH3T3HER14 cells. Nature of the data set: Growth factor-stimulated proliferation in NIH3T3HER14 cells (SRB). Format: cell-based, mouse. The procedure:
To study the effect of our compounds on growth factors stimulated proliferation, cells were grown to 70% confluence in 48-well plates and washed twice with PBS, after which they were exposed to serum-free medium for 18 h. The cells were then exposed to each drug and growth factors (EGF, TGFα, PDGF or serum) for 72 h and cell growth measured using the sulforhodamine B (SRB) assay (33). Briefly, following drug treatment, cells were fixed using 50 μl of cold trichloroacetic acid (50%) for 60 min at 4° C., washed five times with tap water, and stained for 30 min at room temperature with SRB (0.4%) dissolved in acetic acid (0.5%). The plates were rinsed five times with 1% acetic acid and allowed to air dry. […] Each point represents the average of at least two independent experiments run in triplicate.

The target of data set [1] is T1, cytoplasmic domain of the insulin receptor β subunit (Homo sapiens, UniProt P06213).
T1 construct: Baculovirus-expressed cytoplasmic domain of the insulin receptor β subunit; purchased Biomol Research laboratories Inc., USA; host or cells: Baculovirus expression
T1 sequence (P06213 980-1382 limits assumed): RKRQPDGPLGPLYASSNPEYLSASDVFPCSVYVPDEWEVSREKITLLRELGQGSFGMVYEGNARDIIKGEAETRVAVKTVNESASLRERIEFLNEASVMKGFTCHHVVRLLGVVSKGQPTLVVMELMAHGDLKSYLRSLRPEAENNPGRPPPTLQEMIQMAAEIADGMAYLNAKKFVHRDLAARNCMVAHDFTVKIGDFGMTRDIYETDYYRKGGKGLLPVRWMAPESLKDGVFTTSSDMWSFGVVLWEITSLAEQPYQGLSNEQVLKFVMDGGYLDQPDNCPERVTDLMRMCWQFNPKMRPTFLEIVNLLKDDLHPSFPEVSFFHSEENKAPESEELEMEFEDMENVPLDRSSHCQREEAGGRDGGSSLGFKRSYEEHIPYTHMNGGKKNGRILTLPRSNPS
The data set can be described thus: insulin receptor kinase ELISA. The conditions noted are these: 1-100 μM range. The data set is classed as biochemical. As for the experimental part:
Conditions for the c-src and insulin kinase assays were similar to those of the EGFR kinase assay, with the exception of the addition of 1 mM manganese chloride to the assay buffer, and a final ATP concentration of 100 μM. The reaction was terminated by the addition of 50 μl of a 250 mM solution of EDTA prior to aspiration.
A general note: In an ELISA, binding on a coated surface is turned into a signal by an enzyme label.

A short description of data set [2]: Degradation in serum-containing cell culture medium (UV, HPLC). Conditions: bovine, 37° C. The data set is classed as in vitro ADME. The procedure:
Thereafter, proteins were precipitated by the addition of acetonitrile (3.5 ml) and the supernatant collected by centrifugation. […] The operating mode was isocratic and two solutions, “A” (50% acetonitrile) and “B” (50% water), were used with a 0.5 ml/min flow rate and a 5 μL injection volume. […] For the rapid quantitation of metabolite, a less polar acetonitrile-water (70:30) eluent was used.
The half-life was estimated by a one-phase exponential decay curve-fit method using the GraphPad software package (GraphPad Software, Inc., San Diego, Calif.).
The half-life of BJ2000 under physiological conditions was studied by UV-spectrophotometry. BJ2000 was dissolved in a minimum volume of DMSO, diluted with RPMI-1640 supplemented with 10% FBS, and absorbencies read at 340 nm in a UV cell maintained at 37° C. with a circulating water bath. The half-life was estimated by a one-phase exponential decay curve-fit method, using the GraphPad software package (GraphPad software, Inc., San Diego, Calif., USA).
Proteins were thereafter precipitated by the addition of acetonitrile (3.5 ml), and the supernatant collected by centrifugation. […] HPLC analyses were performed on a Hewlett Packard 1090 liquid chromatograph, using a Waters C4 15-μm 300×3.9-mm reverse phase column to characterize and quantitate the products resulting from the degradation of BJ2000. […] The peaks were detected at 250 nm.

The next data set concerns A431 cells. Nature of the data set: SRB growth inhibition assay in A431 cells. The data set is classed as cell-based, human. The conditions noted are these: for IC50: Homo sapiens. As for the experimental part:
All growth inhibitory activities were evaluated using the SRB assay (33). Briefly, following drug treatment, cells were fixed using 50 μL of cold trichloroacetic acid (50%) for 60 min at 4° C., washed five times with tap water, and stained for 30 min at room temperature with SRB (0.4%) dissolved in acetic acid (0.5%). The plates were rinsed five times with 1% acetic acid and allowed to air dry. The resulting colored residue was dissolved in 200 μL of Tris base (10 mM), and the optical density read for each well at 540 nm using a Bio-Rad microplate reader (model 2550). […]
Cell monolayers were continuously exposed to different concentrations of each drug for 72 h. Under short exposure, they were treated with each drug for 2 h and allowed to recover for 72 h in drug-free medium.
To study the reversibility of the antiproliferative effects of our compounds, cells were grown to 70% confluence in 96-well plates and subsequently washed twice with PBS, after which they were exposed to serum-free medium for 18 h. Under continuous exposure, the cells were exposed to different concentrations of each drug for 120 h. Under short exposure, they were exposed to each drug for 2 h, after which they were allowed to recover for 120 h in drug free medium. Growth inhibitory activities were evaluated using the SRB assay as described above.

Data set [3] has as its target T2, EGFR (Homo sapiens, UniProt P00533). Nature of the data set: EGF-induced EGFR autophosphorylation in A431 cells (Western blot).
Protocol: The inhibition of receptor autophosphorylation in viable cells was determined by anti-phosphotyrosine Western Blots. A431 cells were pre-incubated overnight for 24 h at 37° C. in a 6-well plate (1×10^6) with 0.1% serum, after which they were exposed to a range of doses for each drug for 2 h and subsequently treated with 50 ng/mL EGF for 30 min at 37° C. The cells were thereafter washed with PBS and re-suspended in cold lysis buffer [50 mM Tris-HCl pH 7.5; 150 mM NaCl; 1% NP40, 1 mM EDTA; 5 mM NaF; 1 mM Na3VO4; protease inhibitor tablet (Roche Biochemicals, Laval, Canada)]. The lysates were kept on ice for 30 min and collected by centrifugation at 10 000 rpm for 20 min at 4° C. The protein concentrations were determined against a standardized control using the Bio-Rad protein assay kit (Bio-Rad Laboratories, Hercules, Calif.). […] Non-specific binding on the PVDF membrane was minimized with a blocking buffer containing nonfat dry milk (3%) in PBS. The membrane was blotted with primary antibodies [either antiphosphotyrosine antibody (UBI, Lake Placid, N.Y.) for the detection of phosphotyrosine, or anti-EGFR (Neomarkers, Fremont, Calif.) for the determination of corresponding receptor levels], and anti-β-tubulin (Neomarkers, Fremont, Calif.) for the detection of equal loading. Thereafter, blots were incubated with HRP-goat anti-mouse antibody (1:200 dilution; Bio-Rad Laboratories, Hercules, Calif.) and the bands visualized with an enhanced chemiluminescence system (Amersham Pharmacia Biotech, Buckinghamshire, UK). Band intensities were measured using the SynGene GeneTools software package (Cambridge, UK).
The inhibition of receptor autophosphorylation in viable cells was determined by anti-phosphotyrosine Western Blots. […] Protein concentrations were determined against a standardized control using the Bio-Rad protein assay kit (Bio-Rad Laboratories, Hercules, Calif.). […] Band intensities were measured using the SynGene GeneTools software package (Cambridge, UK).
For data set [4], the target named is T2, EGFR. The data set can be described thus: Reverse EGFR autophosphorylation (reversibility) assay in A431 cells. The conditions noted are these: A431, 30 μM. The data set is classed as cell-based. As for the experimental part: To test this hypothesis, the reversibility assay (40, 41) was used, according to which the cells are treated with the drug for 90 min after which the culture medium is repeatedly removed and replaced 3 times, followed by the measurement of EGFR autophosphorylation.
A431 cells were grown to confluence in 6-well plates and then incubated in serum-free medium for 18 h (41). Duplicate sets of cells were then treated with 30 μM of each compound for 90 min. One set of cells was then stimulated with EGF (100 ng/ml) for 10 min and extracts were made as described under the Western blotting procedure above. The other set of cells was washed free of each compound with warmed serum-free media and incubated for 2 h. Thereafter, the cells were washed, incubated for another 2 h, washed again, and then incubated for a further 4 h. This set of cells was then stimulated with EGF and extracts were prepared as for the first set.

Data set [5] deals with NIH3T3 and NIH3T3HER14 cells. The data set can be described thus: Alkaline comet assay in isogenic pair NIH3T3 / NIH3T3HER14. Format: cell-based, mouse. Conditions: NIH3T3HER14 versus NIH3T3, 30 min.
Protocol: The alkaline comet assay was performed as previously described (26). […] Cell suspensions were diluted to approximately 10^6 cells, and mixed with agarose (1%) in PBS at 37° C. in a 1:10 dilution. The gels were cast on Gelbond strips (Mandel Scientific, Guelph, Canada) using gel casting chambers, as previously described (31), and then immediately placed in a lysis buffer [2.5 M NaCl, 0.1 M tetra-sodium EDTA, 10 mM Tris-base, 1% (w/v) N-lauryl sarcosine, 10% (v/v) DMSO, and 1% (v/v) Triton X-100, pH 10.0]. After being kept on ice for 30 min, the gels were gently rinsed with distilled water and immersed in a second lysis buffer (2.5 M NaCl, 0.1 M tetrasodium EDTA, 10 mM Tris-base) containing 1 mg/ml proteinase K for 60 min at 37° C. Thereafter, the gels were rinsed with distilled water, incubated in alkaline electrophoresis buffer for 30 min at 37° C., and electrophoresed at 300 mA for 60 min. […] Comets were visualized at 330× magnification and DNA damage was quantitated using the Tail Moment parameter (i.e., the distance between the barycenter of the head and the tail of the comet multiplied by the percentage of DNA within the tail of the comet). A minimum of 50 cell comets were analyzed for each sample, using ALKOMET version 3.1 image analysis software, and values are averages of tail moments for the entire cell population per sample.
The next data set has as its system MAPK. The data set can be described thus: EGF-induced MAPK phosphorylation in A431 cells (Western blot). The conditions noted are these: A431, at concentrations as low as 1 μM. Format: cell-based, human. The procedure: For the inhibition study of mitogen-activated protein kinase (MAPK) activation by BJ2000, protein lysates were obtained as described above and a Western blot was performed (39). The membrane was incubated with anti-phosphorylated MAPK antibodies or antibodies specific for MAPK (Cell Signaling, Beverly, Mass., USA).

T2 sequence (P00533 25-1210): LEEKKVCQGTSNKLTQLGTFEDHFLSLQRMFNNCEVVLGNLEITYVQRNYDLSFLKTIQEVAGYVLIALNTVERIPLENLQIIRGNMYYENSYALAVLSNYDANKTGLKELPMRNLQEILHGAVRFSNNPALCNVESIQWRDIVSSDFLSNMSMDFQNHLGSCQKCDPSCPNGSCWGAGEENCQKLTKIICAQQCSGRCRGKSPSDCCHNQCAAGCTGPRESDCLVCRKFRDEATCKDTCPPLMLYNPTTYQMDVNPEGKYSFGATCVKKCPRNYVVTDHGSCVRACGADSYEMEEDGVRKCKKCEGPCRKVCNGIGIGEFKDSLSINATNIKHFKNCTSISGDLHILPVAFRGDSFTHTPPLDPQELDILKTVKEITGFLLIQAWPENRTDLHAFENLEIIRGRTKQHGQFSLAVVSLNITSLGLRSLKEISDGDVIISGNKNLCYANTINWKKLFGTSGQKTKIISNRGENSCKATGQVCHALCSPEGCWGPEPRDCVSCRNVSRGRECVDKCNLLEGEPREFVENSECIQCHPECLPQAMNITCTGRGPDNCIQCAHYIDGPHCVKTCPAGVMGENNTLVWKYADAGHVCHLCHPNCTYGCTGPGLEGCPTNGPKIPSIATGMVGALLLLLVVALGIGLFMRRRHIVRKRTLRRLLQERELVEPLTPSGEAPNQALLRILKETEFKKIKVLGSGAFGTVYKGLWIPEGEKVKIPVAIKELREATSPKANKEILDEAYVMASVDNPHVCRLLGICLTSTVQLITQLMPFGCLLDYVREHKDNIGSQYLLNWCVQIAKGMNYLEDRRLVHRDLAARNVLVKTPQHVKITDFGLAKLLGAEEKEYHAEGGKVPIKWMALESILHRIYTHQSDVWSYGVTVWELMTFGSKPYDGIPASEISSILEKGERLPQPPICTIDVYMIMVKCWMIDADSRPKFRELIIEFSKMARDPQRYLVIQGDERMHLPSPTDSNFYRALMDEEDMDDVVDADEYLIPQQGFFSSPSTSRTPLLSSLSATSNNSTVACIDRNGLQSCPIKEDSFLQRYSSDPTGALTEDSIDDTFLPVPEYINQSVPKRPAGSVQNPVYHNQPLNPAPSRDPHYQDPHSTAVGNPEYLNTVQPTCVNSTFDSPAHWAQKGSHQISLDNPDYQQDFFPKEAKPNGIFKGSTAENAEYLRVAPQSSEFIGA
Protocol for PDGFR: The inhibition of receptor autophosphorylation in viable cells was determined by anti-phosphotyrosine Western Blots. A431 and NIH3T3 cells were grown to confluence in 6-well plates, washed twice with PBS and exposed to serum-free medium for 18 h. They were subsequently treated with the compounds for 90 min and then with EGF (100 ng/ml) for 10 min (A431 cells), or with PDGF (100 ng/ml) for 10 min (NIH3T3 cells). They were thereafter washed with PBS and re-suspended in cold lysis buffer [50 mM Tris-HCl pH 7.5; 150 mM NaCl; 1% Nonidet P-40, 1 mM EDTA; 5 mM NaF; 1 mM Na3VO4; protease inhibitor tablet (Roche Biochemicals, Laval, Canada)]. The lysates were kept on ice for 30 min and collected by centrifugation at 10,000 rpm for 20 min at 4° C. Protein concentrations were determined against a standardized control using the Bio-Rad protein assay kit (Bio-Rad Laboratories, Hercules, Calif.). Equal amounts of protein (40 μg/mL) from each cell lysate were added to an 8% SDS-polyacrylamide gel electrophoresis (SDS-PAGE) and transferred to a polyvinylidene difluoride membrane (PVDF) (Millipore, Bedford, Mass.). Non-specific binding on the membrane was minimized with a blocking buffer containing non-fat dry milk (3%) in PBS. […] Band intensities were measured using the SynGene GeneTools software package (Cambridge, UK).

With `CNN=Nc1ccc2ncnc(Nc3cccc(Cl)c3)c2c1` [BJ2000], in the data set with PDGFR, the “effect on PDGF-induced PDGFR autophosphorylation” value is given as “no effect”. Besides, the “concentration giving 100% growth inhibition” value in the data set with NIH3T3HER14 cells (EGF or TGFα-induced proliferation, NIH3T3HER14, 72 h) worked out at 1 µM. Moreover, the “concentration giving 100% inhibition” value in the data set on NIH3T3HER14 cells (PDGF-stimulated growth, NIH3T3HER14, 72 h) is “approximately 30 μM”. In addition, in the data set with NIH3T3HER14 cells (versus EGF or TGFα-induced proliferation, NIH3T3HER14), the “fold less effective in inhibiting PDGF-stimulated growth” value was “approximately 30 fold”. Further, in data set [1], the “effect on insulin receptor TK” value is on record as “nor did it exert any effect on insulin receptor TK”. In addition, in data set [2] (serum-containing cell culture medium (RPMI with 10% serum), RPMI with 10% serum, read-out: half-life (t1/2) by UV spectrophotometry at 340 nm), the half-life was 34 min. Moreover, the half-life at 625 µM in data set [2] (RPMI-1640 with 10% FBS, read-out: half-life (t1/2) by HPLC analysis) was found to be 75 min. Further, the “fold more potent than metabolite FD105” value in the data set with A431 cells (120 h continuous, SRB, A431) was “≈ 3 fold”. Moreover, the IC50 was 15 µM in the data set on A431 cells (A-431, 120 h, read-out: IC50 growth inhibition); 38 µM with A431 cells (A-431, read-out: IC50 growth inhibition); about 6 µM on EGFR [3]. Moreover, the “EGF-dependent EGFR autophosphorylation immediately after drug exposure” value on EGFR [4] (90 min) is “completely suppressed”. Besides, on EGFR [4] (8 h post-treatment in drug-free medium after repeated washouts), the “EGFR autophosphorylation activity restored” value is 40%. For the same compound, in data set [5], the “fold higher levels of DNA damage in the EGFR transfectant” value is reported as “more than 2 fold”. The “inhibition of EGF-induced MAPK phosphorylation” value with MAPK is listed as “complete inhibition; also recorded: block MAPK phosphorylation”.

The IC50 is the concentration at which inhibition is half-maximal.
